Source: PubChem BioAssay AID588401 (Johns Hopkins Ion Channel Center, 2011)
Active and inactive are the calls of the source.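 The calls were made as follows: active = blocks the choline transporter at some tested dose and yields a fitted dose response curve; inconclusive = no clear call, values can overlap the other calls; inactive = no blocking at any dose or no curve.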

What follows are compounds tested against High affinity choline transporter 1 (Homo sapiens) (UniProt Q9GZV3) (assay: human choline transporter blockers, potency – cell-based, 10-point CRC, membrane potential dye, dose response (AID 588401)). Details: HEK293-CHT, choline-induced depolarization, at 25 µM (top of the series), cells express LV-AA mutant CHT.
Chain of High affinity choline transporter 1 (Homo sapiens) (Q9GZV3 whole entry, looked up): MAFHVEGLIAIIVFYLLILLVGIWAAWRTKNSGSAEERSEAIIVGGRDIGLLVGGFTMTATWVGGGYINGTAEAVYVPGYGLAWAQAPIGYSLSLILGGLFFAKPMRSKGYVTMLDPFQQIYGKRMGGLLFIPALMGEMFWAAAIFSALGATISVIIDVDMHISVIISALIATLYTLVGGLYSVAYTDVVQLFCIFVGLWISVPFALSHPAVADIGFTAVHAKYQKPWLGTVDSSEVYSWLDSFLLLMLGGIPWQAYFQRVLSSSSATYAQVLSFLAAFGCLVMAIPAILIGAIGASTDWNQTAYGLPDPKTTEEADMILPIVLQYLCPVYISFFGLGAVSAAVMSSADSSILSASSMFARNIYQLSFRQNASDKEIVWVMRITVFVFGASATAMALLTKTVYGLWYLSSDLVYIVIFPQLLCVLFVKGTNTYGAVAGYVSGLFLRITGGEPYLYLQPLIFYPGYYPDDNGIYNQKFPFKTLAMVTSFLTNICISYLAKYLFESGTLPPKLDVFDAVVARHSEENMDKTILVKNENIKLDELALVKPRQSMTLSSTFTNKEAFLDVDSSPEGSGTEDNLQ

inhibition (negative values = inhibition)	Compound
inactive	CCCc1ccc(OCc2ccc(C(=O)NCc3cccnc3)o2)c(OC)c1
inactive	Cc1ccccc1-n1c(C)cc(/C=N/NC(=O)c2ccc(CN3CCOCC3)cc2)c1C
inactive	C/C(=N\NS(=O)(=O)c1ccc(Cl)c([N+](=O)[O-])c1)c1cc2ccccc2o1
inactive	C[C@H](NC(=O)OC(C)(C)C)c1nnc(SCC(=O)c2ccc(Cl)cc2)o1
inactive	COc1cccc(/C=C2\SC(=S)N(NS(=O)(=O)c3ccccc3)C2=O)c1OC
inactive	Fc1ccc(NC(=S)Nc2ccc(F)c(Cl)c2)cc1Cl
inactive	COc1ccc(-c2csc(Cc3nnc4n3CCCCC4)n2)cc1
inactive	CC(C)C(=O)Nc1cccc(NC(=O)c2ccc(Cl)cc2Cl)c1
inactive	CCOC(=O)c1sc(NC(=O)CCN2C(=O)c3cccc([N+](=O)[O-])c3C2=O)c(C(=O)OCC)c1C
inactive	O=C(CSc1nc2ccccc2[nH]1)c1ccc2c(c1)OCO2
inactive	CCCCc1cc(O)c(CCCC)c(O)c1
inactive	C=C(C)CSc1nnc(CCCCCNC(=O)OC(C)(C)C)o1
inactive	O=[N+]([O-])c1cc(Cc2ccccc2)cc(C=Nc2ccc(N3CCOCC3)cc2)c1O

The remaining lines, values behind:

Compound	inhibition (negative values = inhibition)
COc1cc(/C=C2/C(=O)ON=C2c2ccccc2)ccc1O	inactive
O=S(=O)(c1ccccc1F)N1CCN(CCc2ccccc2)CC1	inactive
COc1cc(/C=C2/C(=O)c3cccc([N+](=O)[O-])c3C2=O)c(Br)cc1O	inactive
Oc1ccc(C[C@H]2NCCc3cc(O)c(O)cc32)cc1O	inactive
Cc1ccc(-c2cccc(CN3CCN(C(C)C)C(CCO)C3)c2)o1 (stereo unspecified)	inactive
CCOC(=O)c1cccc(NC(=O)CSc2nnc(C)n2Cc2ccccc2)c1	inactive
Cc1noc(NS(=O)(=O)c2ccc(NC(=O)COc3ccc(Cl)cc3Cl)cc2)c1C	inactive
CC1CCCCC1NC(=O)Cn1nnc(-c2ccc(Cl)cc2)n1 (stereo unspecified)	inactive
CCOCCCNC(=O)/C(C#N)=C/c1ccc([N+](=O)[O-])o1	inactive
O=C(NC1CCCCC1)C(c1ccc2ncccc2c1)N(Cc1ccccc1)C(=O)c1ccc2c(c1)OCCO2 (stereo unspecified)	inactive
CCS(=O)(=O)C1=NN2C(=N)/C(=C\c3ccc(OS(=O)(=O)c4ccccc4)cc3)C(=O)N=C2S1	inactive
O=C(O)C1CCN(c2nc(-c3ccccc3)nc3c2oc2ccccc23)CC1	inactive
CCCc1cc(NCC2CCCO2)n2c(nc3ccccc32)c1C#N (stereo unspecified)	inactive
COc1cccc(OC)c1OCCCCCc1c(C)n[nH]c1C	inactive
Cc1ccc(S(=O)(=O)N2[C@@H](c3ccc(Cl)cc3)C(C(=O)O)=CC[C@H]2c2ccc(Cl)cc2)cc1	inactive
O=C(c1c(O)c2ccccc2oc1=O)C1CCCCC1	inactive

Same assay, conditions: HEK293-CHT, choline-induced depolarization, cells express LV-AA mutant CHT

IC50 [µM]	Compound
4.47	CC(C)c1nnc(NC(=O)c2nc(S(=O)(=O)Cc3ccccc3)ncc2Cl)s1
3.55	CCCn1nc(NS(=O)(=O)c2cccc3nonc23)c2cc3cccc(C)c3nc21
